Test results: ChEMBL document CHEMBL1201862, “PubChem BioAssay data set” (2004)
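Tested at 5 concentrations; 48 h exposure; 96-well plates; endpoints linearly interpolated, else capped at highest concentration. Here, GI50 denotes the concentration required for 50% inhibition of growth.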 Calls of active or inactive are those of the source. Cut-off read from the data, not from the text of the source: active = GI50 up to about 1.1 µM and inactive = higher.

Key:
Assay in all cases: NCI-60 cell line screen, 48 h
NCI-H460 = test system: NCI-H460
EKVX = test system: EKVX
HL-60 = test system: HL-60
HCT-116 = test system: HCT-116
UO-31 = test system: UO-31
OVCAR-3 = test system: OVCAR-3
SF-295 = test system: SF-295
OVCAR-5 = test system: OVCAR-5
SK-OV-3 = test system: SK-OV-3
SW-620 = test system: SW-620
OVCAR-4 = test system: OVCAR-4
A549 = test system: A549
SK-MEL-28 = test system: SK-MEL-28
OVCAR-8 = test system: OVCAR-8
RPMI-8226 = test system: RPMI-8226
LOX IMVI = test system: LOX IMVI
RXF 393 = test system: RXF 393

Measured: GI50

C/C(=N\NS(=O)(=O)c1ccccc1)c1ccc[n+]([O-])n1
inactive: NCI-H460 > 100 µM | EKVX > 100 µM | HL-60 21.8 µM | HCT-116 88.1 µM | UO-31 > 100 µM | OVCAR-3 42.5 µM | SF-295 > 100 µM | OVCAR-5 > 100 µM | SK-OV-3 > 100 µM | SW-620 34.8 µM | OVCAR-4 49.3 µM | A549 > 100 µM | SK-MEL-28 62.5 µM | OVCAR-8 81.7 µM | RPMI-8226 28.1 µM

CN1CC(C(=O)C2C(=O)c3ccccc3C2=O)C(=O)C(=O)C(C(=O)C2C(=O)c3ccccc3C2=O)C1 (stereo unspecified)
inactive: NCI-H460 > 100 µM | HL-60 > 100 µM | HCT-116 > 100 µM | UO-31 > 100 µM | OVCAR-3 > 10 µM | SF-295 > 100 µM | OVCAR-5 > 100 µM | SK-OV-3 > 100 µM | SW-620 > 100 µM | A549 > 100 µM | SK-MEL-28 > 100 µM | LOX IMVI > 100 µM | OVCAR-8 77.6 µM

N#Cc1nc(Nc2ccc(Cl)cc2)sc1N
inactive: NCI-H460 16.4 µM | EKVX 24.2 µM | HL-60 4.92 µM | HCT-116 6.44 µM | UO-31 3.62 µM | OVCAR-3 17.8 µM | SF-295 16.9 µM | OVCAR-5 12.1 µM | SK-OV-3 21.5 µM | SW-620 6.1 µM | OVCAR-4 24 µM | A549 10.7 µM | SK-MEL-28 20.5 µM | LOX IMVI 3.47 µM | OVCAR-8 16.7 µM | RPMI-8226 2.34 µM

CCOC(=O)/C=C(/CN1C(=O)c2ccccc2C1=O)c1ccccc1
inactive: NCI-H460 > 100 µM | EKVX > 100 µM | HCT-116 > 100 µM | UO-31 > 100 µM | OVCAR-3 > 100 µM | RXF 393 > 100 µM | SF-295 > 100 µM | OVCAR-5 > 100 µM | SK-OV-3 > 100 µM | SW-620 > 100 µM | OVCAR-4 > 100 µM | A549 > 100 µM | SK-MEL-28 > 100 µM | LOX IMVI > 100 µM | OVCAR-8 > 100 µM | RPMI-8226 > 100 µM

N#Cc1ccccc1NC(=O)c1ccccc1
inactive: NCI-H460 > 100 µM | EKVX > 100 µM | HCT-116 > 100 µM | OVCAR-3 > 100 µM | RXF 393 > 100 µM | SF-295 > 100 µM | OVCAR-5 > 100 µM | SW-620 > 100 µM | OVCAR-4 > 100 µM | A549 > 100 µM | SK-MEL-28 > 100 µM | LOX IMVI > 100 µM | OVCAR-8 > 100 µM | RPMI-8226 > 100 µM

Nc1nc(SCCC/C=C/B(O)O)nc2c1ncn2C1OC(COP(=O)(O)O)C(O)C1O (stereo unspecified)
inactive: NCI-H460 > 203 µM | HL-60 > 203 µM | HCT-116 > 203 µM | UO-31 > 203 µM | OVCAR-3 > 203 µM | SF-295 > 203 µM | OVCAR-5 > 203 µM | SK-OV-3 > 203 µM | SW-620 > 203 µM | OVCAR-4 > 203 µM | A549 > 203 µM | SK-MEL-28 > 203 µM | LOX IMVI > 203 µM | OVCAR-8 > 203 µM | RPMI-8226 > 203 µM

CCCCCNC(=O)C1C(=O)N(CCCCC)C(=O)/C1=N\N (stereo unspecified)
inactive: NCI-H460 78.5 µM | EKVX 86.7 µM | HL-60 > 100 µM | UO-31 26.8 µM | OVCAR-3 46.8 µM | SF-295 30.5 µM | OVCAR-5 > 100 µM | SW-620 79.3 µM | OVCAR-4 61.8 µM | A549 77.6 µM | SK-MEL-28 62.8 µM | OVCAR-8 49.2 µM
